{"source": "patent US20040255343A1", "about": "“Caspase-9 deficient animals and the use thereof” (priority 1998, published 2004)", "key": {"[1]": {"test_system": "Caspase-9 −/− thymocytes", "assay": "DNA fragmentation assay (DNA laddering on agarose gel)", "assay_type": "cell-based, mice", "procedure": "(§1) Thymocytes were isolated from wild type and Caspase9 −/− mice. One million cells were treated with 2 μM dexamethasone (Sigma), 1 μM staurosporine (Sigma), 1 μg/ml anti-mouse Fas antibody (PharMingen) plus […] cycloheximide (Sigma), or 10% FCS medium only for 6 hr or 24 hr. Samples were stained with Annexin V (Boehringer Mannheim) and 7-aminoactinomycin D (7-AAD) (Sigma) to label apoptotic cells for FACS Sort (Becton Dickinson).\nDNA was isolated using a DNA isolation kit (LeMax Biotech) and subjected to electrophoresis on a 2% agarose gel. Gels were stained by ethidium bromide and images were taken by a scanner."}, "[2]": {"test_system": "Caspase-9 −/− thymocytes", "assay": "Apoptosis assay using thymocytes (Annexin V / 7-AAD, FACS)", "assay_type": "cell-based, mice", "conditions": "Caspase-9 −/− thymocytes vs wild type; 2 μM dexamethasone, 1 μM staurosporine or 1 μg/ml anti-mouse Fas antibody plus cycloheximide; 6 hr or 24 hr", "source_text": "To investigate the role of Caspase-9 in apoptosis pathways in other systems, we used primary cultures of thymocytes. Although thymocytes from Caspase9 −/− animals developed normally with no differences in the number of thymocytes or in the ratio of surface markers such as CD4, CD8 or CD3 (data not shown), we challenged the thymocytes with several apoptotic stimuli: dexamethasone, staurosporine, and anti-Fas antibody\nas §1"}}, "data": [{"smiles": "CN[C@@H]1C[C@H]2O[C@@](C)([C@@H]1OC)n1c3ccccc3c3c4c(c5c6ccccc6n2c5c31)C(=O)NC4", "note": "[staurosporine]", "values": [{"measurement": "DNA laddering", "setting": "[1]; Caspase-9 deficient thymocytes, up to 24 hours of treatment", "result": "DNA laddering was also eliminated"}, {"measurement": "DNA cleavage after long-term treatment", "setting": "[1]; Caspase-9 −/− thymocytes, 36 and 48 hours of continual treatment (data not shown)", "result": "did begin to cleave their DNA"}, {"measurement": "thymocyte survival / induced cell death", "setting": "[2]", "result": "reduced survival which was comparable to the death seen in controls"}]}]}
